33 molecules from US7045532B2 (Millennium Pharmaceuticals, Inc., priority 1999, dated 2006) can be followed below.

Where only a bound is given, the exact number is not on record here.

T1 sequence (Q9BYF1 18-740 limits assumed): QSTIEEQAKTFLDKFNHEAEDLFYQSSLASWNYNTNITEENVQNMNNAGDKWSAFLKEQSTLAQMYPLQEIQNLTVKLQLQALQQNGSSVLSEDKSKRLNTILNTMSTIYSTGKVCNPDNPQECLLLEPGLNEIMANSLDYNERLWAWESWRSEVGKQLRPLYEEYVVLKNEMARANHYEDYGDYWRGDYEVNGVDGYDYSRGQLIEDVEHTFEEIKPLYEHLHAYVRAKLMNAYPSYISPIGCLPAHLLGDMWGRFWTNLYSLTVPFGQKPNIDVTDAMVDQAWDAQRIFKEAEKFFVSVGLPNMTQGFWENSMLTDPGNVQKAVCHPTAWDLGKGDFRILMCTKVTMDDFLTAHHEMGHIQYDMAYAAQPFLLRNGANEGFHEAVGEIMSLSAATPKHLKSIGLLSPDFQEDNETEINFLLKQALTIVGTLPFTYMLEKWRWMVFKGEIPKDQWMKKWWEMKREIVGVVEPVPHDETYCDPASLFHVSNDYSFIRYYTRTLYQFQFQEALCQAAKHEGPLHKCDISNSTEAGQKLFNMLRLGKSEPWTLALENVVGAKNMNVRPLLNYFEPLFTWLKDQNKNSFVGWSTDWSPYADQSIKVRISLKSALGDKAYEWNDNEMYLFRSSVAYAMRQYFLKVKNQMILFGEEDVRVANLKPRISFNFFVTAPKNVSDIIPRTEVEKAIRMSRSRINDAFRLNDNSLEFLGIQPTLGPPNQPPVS

One test concerns the target T1, ACE-2 (Homo sapiens, UniProt Q9BYF1).
T1 construct: a stop codon inserted after the serine immediately preceding the transmembrane domain; made in house; host or cells: CHO K1 cells (transient transfection, purified from conditioned medium)
Nature of the test: ACE-2 Competitive Substrate Assay (ACS Assay). The test is classed as biochemical. The following applies: Ki class; compounds tested in 5% DMSO, 12 compound concentrations, Ki=Kiapp/(1+[S]/Km); read-out: Human ACE-2 Activity.
As for `CC(C)CC(N[C@@H](Cc1cncn1Cc1ccc(Cl)c(Cl)c1)C(=O)O)C(=O)O` (single isomer, unassigned) [GX], the Ki is > 500 nM.

Consider `Cc1nc(C[C@H](NC(CC(C)C)C(=O)O)C(=O)O)cs1` (single isomer, unassigned) [GY, 2-[1-Carboxy-2-(2-methyl-thiazol-4-yl)-ethylamino]-4-methyl-pentanoic acid], for which the Ki was > 500 nM.

`CC(C)CC(N[C@@H](Cc1cncn1Cc1ccc(C#N)cc1)C(=O)O)C(=O)O` (single isomer, unassigned) [HB, 2-[1-Carboxy-2-[3-(4-cyano-benzyl)-3H-imidazol-4-yl]-ethylamino)4-methyl-pentanoic acid]: the Ki was > 500 nM.

For the molecule `CC(C)CC(N[C@@H](Cc1cncn1Cc1cccc(Cl)c1)C(=O)O)C(=O)O` (single isomer, unassigned) [HD, 2-{1-Carboxy-2-[3-(3-chloro-benzyl)-3H-imidazol-4-yl]-ethylamino)4-methyl-pentanoic acid], the Ki is > 500 nM.

For the molecule `CC(C)CC(N[C@@H](Cc1cncn1Cc1cc(Cl)cc(Cl)c1)C(=O)O)C(=O)O` (single isomer, unassigned) [HF, 2-[1-Carboxy-2-[3-(3,5-dichloro-benzyl)-3H-imidazol-4-yl]-ethylamino)4-methyl-pentanoic acid], the Ki lay in the range of 100 to 500 nM.

On to `Cc1ccc(Cn2cncc2C[C@H](NC(CC(C)C)C(=O)O)C(=O)O)cc1` (single isomer, unassigned) [HH, 2-[1-Carboxy-2-[3-(4-methyl-benzyl)-3H-imidazol-4-yl]-ethylamino)4-methyl-pentanoic acid], for which the Ki lay within 100 to 500 nM.

For the molecule `CCCCc1ccc(Cn2cncc2C[C@H](NC(CC(C)C)C(=O)O)C(=O)O)cc1` (single isomer, unassigned) [HI, 2-[2-[3-(4-Butyl-benzyl)-3H-imidazol-4-yl]-1-carboxy-ethylamino]-4-methyl-pentanoic acid], the Ki was 100 to 500 nM.

In the case of `CCCCc1ccc(Cn2cncc2C[C@H](NC(CC(C)C)C(=O)O)C(=O)O)cc1` (single isomer, unassigned) [HJ, 2-[2-[3-(4-Butyl-benzyl)-3H-imidazol-4-yl]-1-carboxy-ethylamino]-4-methyl-pentanoic acid], the Ki was > 500 nM.

`Cc1ccc(Cn2cncc2C[C@H](NC(CC(C)C)C(=O)O)C(=O)O)cc1C` (single isomer, unassigned) [HL, 2-[1-Carboxy-2-[3-(3,4-dimethyl-benzyl)-3H-imidazol-4-yl]-ethylamino]4-methyl-pentanoic acid]: the Ki is > 500 nM.

`CC(C)CC(N[C@@H](Cc1csc(NCc2ccccc2)n1)C(=O)O)C(=O)O` (single isomer, unassigned) [HM, 2-[2-(2-Benzylamino-thiazol-4-yl)-1-carboxy-ethylamino]-4-methyl-pentanoic acid]: the Ki is > 500 nM.

Consider `Cc1cccc(Cn2cncc2C[C@H](NC(CC(C)C)C(=O)O)C(=O)O)c1` (single isomer, unassigned) [HP, 2-[1-Carboxy-2-[3-(3-methyl-benzyl)-3H-imidazol-4-yl]-ethylamino]4-methyl-pentanoic acid], for which the Ki is > 500 nM.

With `Cc1cc(C)cc(Cn2cncc2C[C@H](NC(CC(C)C)C(=O)O)C(=O)O)c1` (single isomer, unassigned) [HR, 2-[1-Carboxy-2-[3-(3,5-dimethyl-benzyl)-3H-imidazol-4-yl]-ethylamino)4-methyl-pentanoic acid], the Ki is > 500 nM.

Consider `CC(C)CC(N[C@@H](Cc1cncn1Cc1ccc(OC(F)(F)F)cc1)C(=O)O)C(=O)O` (single isomer, unassigned) [HT, 2-[1-Carboxy-2-[3-(4-trifluoromethoxy-benzyl)-3H-imidazol-4-yl]-ethylamino]-4-methyl-pentanoic acid], for which the Ki is > 500 nM.

Turning to `CC(C)CC(N[C@@H](Cc1cncn1Cc1ccc(C(C)C)cc1)C(=O)O)C(=O)O` (single isomer, unassigned) [HV, 2-[1-Carboxy-2-[3-(4-isopropyl-benzyl)-3H-imidazol-4-yl]-ethylamino)4-methyl-pentanoic acid], the Ki was > 500 nM.

As to `Cc1ccccc1Cn1cncc1C[C@H](NC(CC(C)C)C(=O)O)C(=O)O` (single isomer, unassigned) [HW, 2-[1-Carboxy-2-[3-(2-methyl-benzyl)-3H-imidazol-4-yl]-ethylamino]4-methyl-pentanoic acid], the Ki lay in the range of 100 to 500 nM.

For the molecule `Cc1ccccc1Cn1cncc1C[C@H](NC(CC(C)C)C(=O)O)C(=O)O` (single isomer, unassigned) [HX, 2-[1-Carboxy-2-[3-(2-methyl-benzyl)-3H-imidazol-4-yl]-ethylamino]4-methyl-pentanoic acid], the Ki was > 500 nM.

Take `CC(C)CC(N[C@@H](Cc1cncn1Cc1ccc(C(C)(C)C)cc1)C(=O)O)C(=O)O` (single isomer, unassigned) [HZ, 2-[2-[3-(4-tert-Butyl-benzyl)-3H-imidazol-4-yl]-1-carboxy-ethylamino]-4-methyl-pentanoic acid]: the Ki is > 500 nM.

With `CC(C)CC(N[C@@H](Cc1cncn1Cc1ccccc1CS(=O)(=O)c1ccccc1)C(=O)O)C(=O)O` (single isomer, unassigned) [IA, 2-[2-[3-(2-Benzenesulfonylmethyl-benzyl)-3H-imidazol-4-yl]-1-carboxy-ethylamino]-4-methyl-pentanoic acid], the Ki was > 500 nM.

With `CC(C)CC(N[C@@H](Cc1cncn1Cc1ccc([N+](=O)[O-])cc1)C(=O)O)C(=O)O` (single isomer, unassigned) [IC, 2-[1-Carboxy-2-[3-(4-nitro-benzyl)-3H-imidazol-4-yl]-ethylamino]-4-methyl-pentanoic acid], the Ki was < 100 nM.

Consider `CC(C)CC(N[C@@H](Cc1cncn1Cc1ccc([N+](=O)[O-])cc1)C(=O)O)C(=O)O` (single isomer, unassigned) [ID, 2-[1-Carboxy-2-[3-(4-nitro-benzyl)-3H-imidazol-4-yl]-ethylamino]-4-methyl-pentanoic acid], for which the Ki is > 500 nM.

Regarding `CC(C)CC(N[C@@H](Cc1cncn1Cc1ccccc1-c1ccccc1)C(=O)O)C(=O)O` (single isomer, unassigned) [IE], the Ki is > 500 nM.

For `CC(C)CC(N[C@@H](Cc1cncn1Cc1cc(C(F)(F)F)cc(C(F)(F)F)c1)C(=O)O)C(=O)O` (single isomer, unassigned) [IG, 2-[2-[3-(3,5-Bis-trifluoromethyl-benzyl)-3H-imidazol-4-yl]-1-carboxy-ethylamino]-4-methyl-pentanoic acid], the Ki was > 500 nM.

On to `CC(C)CC(N[C@@H](Cc1cncn1Cc1ccc(F)cc1)C(=O)O)C(=O)O` (single isomer, unassigned) [IJ, 2-[1-Carboxy-2-[3-(4-fluoro-benzyl)-3H-imidazol-4-yl]-ethylamino]4-methyl-pentanoic acid], for which the Ki was > 500 nM.

On to `COc1cccc(Cn2cncc2C[C@H](NC(CC(C)C)C(=O)O)C(=O)O)c1OC` (single isomer, unassigned) [IO, 2-[1-Carboxy-2-[3-(2,3-dimethoxy-benzyl)-3H-imidazol-4-yl]-ethylamino)4-methyl-pentanoic acid], for which the Ki is < 100 nM.

Consider `COc1cccc(Cn2cncc2C[C@H](NC(CC(C)C)C(=O)O)C(=O)O)c1OC` (single isomer, unassigned) [IP, 2-[1-Carboxy-2-[3-(2,3-dimethoxy-benzyl)-3H-imidazol-4-yl]-ethylamino)4-methyl-pentanoic acid], for which the Ki is > 500 nM.

Turning to `Cc1c(Cn2cncc2C[C@H](NC(CC(C)C)C(=O)O)C(=O)O)cccc1-c1ccccc1` (single isomer, unassigned) [IQ, 2-[1-Carboxy-2-[3-(2-methyl-biphenyl-3-ylmethyl)-3H-imidazol-4-yl]-ethylamino]-4-methyl-pentanoic acid], the Ki was 100 to 500 nM.

Turning to `Cc1c(Cn2cncc2C[C@H](NC(CC(C)C)C(=O)O)C(=O)O)cccc1-c1ccccc1` (single isomer, unassigned) [IR, 2-[1-Carboxy-2-[3-(2-methyl-biphenyl-3-ylmethyl)-3H-imidazol-4-yl]-ethylamino)-4-methyl-pentanoic acid], the Ki is > 500 nM.

Regarding `COc1ccc2ccccc2c1Cn1cncc1C[C@H](NC(CC(C)C)C(=O)O)C(=O)O` (single isomer, unassigned) [IS, 2-[1-Carboxy-2-[3-(2-methoxy-naphthalen-1-ylmethyl)-3H-imidazol-4-yl]-ethylamino]-4-methyl-pentanoic acid], the Ki was > 500 nM.

With `CC(C)CC(N[C@@H](Cc1cncn1Cc1cccc(F)c1F)C(=O)O)C(=O)O` (single isomer, unassigned) [IU, 2-[1-Carboxy-2-[3-(2,3-difluoro-benzyl)-3H-imidazol-4-yl]-ethylamino]4-methyl-pentanoic acid], the Ki is < 100 nM.

On to `CC(C)CC(N[C@@H](Cc1cncn1Cc1cccc(F)c1F)C(=O)O)C(=O)O` (single isomer, unassigned) [IV, 2-[1-Carboxy-2-[3-(2,3-difluoro-benzyl)-3H-imidazol-4-yl]-ethylamino]4-methyl-pentanoic acid], for which the Ki is > 500 nM.

On to `CC(C)CC(N[C@@H](Cc1cncn1Cc1cccc(Cl)c1Cl)C(=O)O)C(=O)O` (single isomer, unassigned) [IY, 2-[1-Carboxy-2-[3-(2.3-dichloro-benzyl)-3H-imidazol-4-yl]-ethylamino]4-methyl-pentanoic acid], for which the Ki was < 100 nM.

Still in this test, the particulars now being: Ki class; compounds tested in 5% DMSO, 12 concentrations; read-out: Human ACE-2 Activity.
Consider `CC(C)CC(N[C@@H](Cc1nc2ccccc2n1Cc1ccccc1)C(=O)O)C(=O)O` (single isomer, unassigned) [GR, 2-[2-(1-Benzyl-1H-benzoimidazol-2-yl)-1-carboxy-ethylamino]-4-methyl-pentanoic acid], for which the Ki was > 500 nM.

In the case of `CC(C)CC(N[C@@H](Cc1csc(N)n1)C(=O)O)C(=O)O` (single isomer, unassigned) [GU, 2-[2-(2-Amino-thiazol-4-yl)1-carboxy-ethylamino]-4-methyl-pentanoic acid], the Ki is > 500 nM.

Staying with this test, now noted: Table 3, very good ACE-2 inhibiting compounds; species not given; read-out: ACE-2 Activity, Ki.
On to `CC(C)CC(N[C@@H](Cc1cncn1Cc1ccc([N+](=O)[O-])cc1)C(=O)O)C(=O)O` (single isomer, unassigned) [IC, 2-[1-Carboxy-2-[3-(4-nitro-benzyl)-3H-imidazol-4-yl]-ethylamino]-4-methyl-pentanoic acid], for which the Ki is 50 to 100 nM.

Regarding `COc1cccc(Cn2cncc2C[C@H](NC(CC(C)C)C(=O)O)C(=O)O)c1OC` (single isomer, unassigned) [IO, 2-[1-Carboxy-2-[3-(2,3-dimethoxy-benzyl)-3H-imidazol-4-yl]-ethylamino)4-methyl-pentanoic acid], the Ki lay within 50 to 100 nM.

Take `CC(C)CC(N[C@@H](Cc1cncn1Cc1cccc(F)c1F)C(=O)O)C(=O)O` (single isomer, unassigned) [IU, 2-[1-Carboxy-2-[3-(2,3-difluoro-benzyl)-3H-imidazol-4-yl]-ethylamino]4-methyl-pentanoic acid]: the Ki is 50 to 100 nM.
